# Assay results: patent US4988497A, “Process for the optical determination of lipase” (Boehringer Mannheim GmbH, priority 1985, dated 1991)
# How the values were obtained:
# [1] = blank change (water instead of sample); format: physicochemical; conditions: 100 μl water instead of sample; extinction change at 578 nm
# Protocol: (§1) 1.2 g. Sodium desoxycholate and 0.15 mg. colipase (from the pig) are dissolved in 60 ml. distilled water, with stirring. A solution of 70 mg. of the lipase substrate 1,2-0-dioctyl-rac-glycero-3-azelaic acid resorufin ester (Example 4) in 1.7 ml. n-propanol are injected herein under pressure in the thinnest possible stream, with vigorous stirring. A solution which, in 200 ml. distilled water, contains 1.5 g. urea, 1 g. sodium desoxycholate, 200 mg. sodium chloride, 800 mg. TRIS and 107 mg. TRIS.HCl, is well mixed with the above-produced emulsion.
# (§2) 2.5 ml. of the so produced solution are mixed with 100 μ. of sample (serum). The reaction is monitored photometrically at 578 nm Hg.
# The blank change was determined with a reagent according to Example 1 and various lipase substrates. Instead of the sample, 100 μ1. water were added and the extinction change monitored photometrically at 578 nm (ΔmE/min.).
# [2] = test system: carboxyl esterase (EC 3.1.1.1); test: esterase sensitivity; format: biochemical; conditions: for esterase sensitivity (activity 20,000 U/l): 100 μl carboxyl esterase about 20,000 U/l, 578 nm; for Esterase sensitivity: emulsion prepared as in Example 22
# Protocol: as §1, §2
# For the determination of the esterase sensitivity, instead of the sample there were added 100 μl. carboxyl esterase (EC 3.1.1.1; about 20,000 U/1. Boehringer Mannheim GmbH, Order No. 10 46 98) and the extinction change monitored as described above.
# lipase (EC 3.1.1.3) [3] = test: lipase sensitivity; format: biochemical; conditions: for lipase sensitivity (activity 100 U/l): 100 μl lipase about 100 U/l, 578 nm
# Protocol: as §1, §2
# For the determination of the lipase sensitivity, instead of the sample there were added 100 μl. lipase (EC 3.1.1.3; about 100 U/1., Boehringer Mannheim GmbH, Order No. 41 45 90) and the extinction change monitored as described above.
# [4] = blank change (water instead of sample); format: physicochemical
# lipase (EC 3.1.1.3) [5] = test: lipase sensitivity; format: biochemical
# [6] = emulsion prepared as in Example 22
# [7] = taurodesoxycholate/TRIS reagent pH 7.5, 578 nm
# [8] = fluorometric, 25° C., excitation 364 nm, emission 448 nm
SMILES,blank [1],"esterase sensitivity (activity 20,000 U/l) [2]",lipase sensitivity (activity 100 U/l) (lipase (EC 3.1.1.3) [3]),other results
"CCCCCCOCC(COC(=O)CCCC(=O)Oc1ccc2nc3ccc(=O)cc-3oc2c1)OCCCCCC (racemic) [Example 1, 1,2-O-Dihexyl-rac-glycero-3-glutaric acid resorufin ester]",13.2 ΔmE/min,> 1000 ΔmE/min,–,–
"CCCCCCCCOCC(COC(=O)CCCC(=O)Oc1ccc2nc3ccc(=O)cc-3oc2c1)OCCCCCCCC (racemic) [Example 2, 1,2-O-Dioctyl-rac-glycero-3-glutaric acid resorufin ester]",7.0 ΔmE/min,144.0 ΔmE/min,~ 100 ΔmE/min,–
"CCCCCCCCOCC(COC(=O)CCCCCC(=O)Oc1ccc2nc3ccc(=O)cc-3oc2c1)OCCCCCCCC (racemic) [Example 3, 1,2-O-dioctyl-rac-glycero-3-pimelic acid resorufin ester]",3.9-4.1 ΔmE/min,112.5 ΔmE/min,12.28 ΔmE/min,–
"CCCCCCCCOCC(COC(=O)CCCCCCCC(=O)Oc1ccc2nc3ccc(=O)cc-3oc2c1)OCCCCCCCC (racemic) [Example 4, 1,2-O-dioctyl-rac-glycero-3-azelaic acid resorufin ester]",0.4-0.8 ΔmE/min,33.6 ΔmE/min,18.04 ΔmE/min,–
"CCCCCCCCCCOCC(COC(=O)CCCC(=O)Oc1ccc2nc3ccc(=O)cc-3oc2c1)OCCCCCCCCCC (racemic) [Example 5, 1,2-O-Didecyl-rac-glycero-3-glutaric acid resorufin ester]",2.4-3.0 ΔmE/min,30.2 ΔmE/min,22.18 ΔmE/min,–
"CCCCCCCCCCCOCC(COC(=O)CCCC(=O)Oc1ccc2nc3ccc(=O)cc-3oc2c1)OCCCCCCCCCCC (racemic) [Example 6, 1,2-O-Diundecyl-rac-glycero-3-glutaric acid resorufin ester]",2.0-2.8 ΔmE/min,23.6 ΔmE/min,6.96 ΔmE/min,–
"CCCCCCCCCCCCOCC(COC(=O)CCCC(=O)Oc1ccc2nc3ccc(=O)cc-3oc2c1)OCCCCCCCCCCCC (racemic) [Example 7, 1,2-O-Dilauryl-rac-glycero-3-glutaric acid resorufin ester]",2.4-3.0 ΔmE/min,34.8 ΔmE/min,10.9 ΔmE/min,–
"CCCCCCCCCCCCOCC(COC(=O)CCCCCC(=O)Oc1ccc2nc3ccc(=O)cc-3oc2c1)OCCCCCCCCCCCC (racemic) [Example 8, 1,2-O-Dilauryl-rac-glycero-3-pimelic acid resorufin ester]",2.1-2.4 ΔmE/min,27.8 ΔmE/min,4.68 ΔmE/min,–
"CCCCCCCCCCOCC(COC(=O)CCCCCC(=O)Oc1ccc2nc3ccc(=O)cc-3oc2c1)OCCCCCCCCCC (racemic) [Example 20, 1,2-0-Didecyl-rac-glycero-3-pimelic acid resorufin ester]",1.3-2.0 ΔmE/min,48.7 ΔmE/min,9.8 ΔmE/min,–
"CCCCCCCCCCCCOCC(COC(=O)CCCCCCCC(=O)Oc1ccc2nc3ccc(=O)cc-3oc2c1)OCCCCCCCCCCCC (racemic) [Example 21, 1,2-0-Dilauryl-rac-glycero-3-azelaic acid resorufin ester]",9.8-11.9 ΔmE/min,9.5 ΔmE/min,13.2 ΔmE/min,–
"CCCCCCCCCCCCOCC(COC(=O)CCCCCCCCCCCCC(=O)Oc1ccc2nc3ccc(=O)cc-3oc2c1C)OCCCCCCCCCCCC (racemic) [Example 28, 1,2-0-Dilauryl-rac-glycero-3-tetradecandiacid (6-methylresorufin) ester]",–,–,–,"blank [4, 6]: 0.2 mE/min; Esterase sensitivity [2]: 0.7 mE/min; Lipase sensitivity (lipase (EC 3.1.1.3) [3]; [6]): 23.6 mE/min per 100 U/1"
"CCCCCCCCCCCCOCC(COC(=O)CCCC(=O)Oc1ccc2nc3ccc(=O)cc-3oc2c1C)OCCCCCCCCCCCC (racemic) [Example 29, 1,2-0-Dilauryl-rac-qlycero-3-glutaric-acid (6-methyl-resorufin)-ester]",–,–,–,"blank [4, 7]: 0.4 mE/min; Lipase sensitivity (lipase (EC 3.1.1.3) [5]; [7]): 28 mE/min per 100 U/l"
"CCCCCCCCCCCCOCC(COC(=O)CCCC(=O)Oc1ccc2c(C)cc(=O)oc2c1)OCCCCCCCCCCCC (racemic) [Example 31, 1,2-0-Dilauryl-rac-glycero-3-glutaric acid-(4-methylumbelliferyl)-ester]",–,–,–,"blank [4, 8]: 0.4 mE/min; Lipase sensitivity (lipase (EC 3.1.1.3) [5]; [8]): 28 mE/min per 100 U/1"
"CCCCCCCCCCCCOCC(COC(=O)CCCC(=O)Sc1ccc([N+](=O)[O-])cc1)OCCCCCCCCCCCC (racemic) [Example 32, 1,2-0-Dilauryl-rac-glycero-3-qlutaric acid-(p-nitrothiophenyl)-ester]",–,–,–,"blank ([4]; CHES reagent pH 8.3, 405 nm): 0.3 mE/min; Lipase sensitivity (lipase (EC 3.1.1.3) [5]; CHES reagent pH 8.3, 405 nm): 12.2 mE/min per 100 U/1"
"CCCCCCCCCCCCCCCCC(COCC(COC(=O)CCCC(=O)Oc1ccc2nc3ccc(=O)cc-3oc2c1C)OC)OC (racemic) [Example 33, 1-0-(2-Methoxy-octadecyl)-2-0-methyl-rac-glycero-3-glutaric acid-(6-methylresorufin) ester]",–,–,–,"blank [4, 6]: 8.4 mE/min; Esterase sensitivity [2]: 25.3 mE/min; Lipase sensitivity (lipase (EC 3.1.1.3) [3]; [6]): 19.0 mE/min per 100 U/1"
"CCCCCCCCCCCCOCC(COC(=O)CCC(=O)Oc1ccc2nc3ccc(=O)cc-3oc2c1)OCCCCCCCCCCCC (racemic) [Example 34, 1,2-0-Dilauryl-rac-glycero-3-succinic acid resorufin ester]",–,–,–,Lipase sensitivity (lipase (EC 3.1.1.3) [3]; [6]): 8.7 mE/min per 100 U/1
"CCCCCCCCCCCCOCC(CSC(=O)CCCC(=O)Oc1ccc2nc3ccc(=O)cc-3oc2c1C)OCCCCCCCCCCCC (racemic) [Example 36, 1,2-0-Dilauryl-rac-3-thioglycero-3-S-glutaric acid (6-methylresorufin) ester]",–,–,–,Esterase sensitivity [2]: 1.3 mE/min; Lipase sensitivity (lipase (EC 3.1.1.3) [3]; [6]): 4.1 mE/min per 100 U/1
"CCCCCCCCCCCCSCC(COC(=O)CCCC(=O)Oc1ccc2nc3ccc(=O)cc-3oc2c1C)SCCCCCCCCCCCC (racemic) [Example 37, 1,2-S-Dilauryl-rac-1,2-dithioglycero-3-glutaric acid (6-methylresorufin) ester]",–,–,–,"blank [4, 6]: 3 mE/min; Esterase sensitivity [2]: 3.4 mE/min; Lipase sensivity (lipase (EC 3.1.1.3) [3]; emulsion prepared as in Example 22, no lipase activity printed): 24 mE/min"
"CCCCCCCCCCCCCCCCOC[C@H](COC(=O)CCCC(=O)Oc1ccc2nc3ccc(=O)cc-3oc2c1)OCCCCCCCCCCCCCCCC [Example 11, 1,2-O-Dihexadecyl-sn-glycero-3-glutaric acid resorufin ester]",0.1 ΔmE/min,1.8 ΔmE/min,0.97 ΔmE/min,–
CCCCCCCCCCCCCCCCC(COC(=O)CCCC(=O)Oc1ccc2nc3ccc(=O)cc-3oc2c1C)OCCCCCCCCCCCC (stereo not shown) [Example 35],–,–,–,Esterase sensitivity [2]: 1.0 mE/min; Lipase sensitivity (lipase (EC 3.1.1.3) [3]; [6]): 25.5 mE/min per 100 U/1
